Laboratory results published in US20230279011A1, “WATER-SOLUBLE TRYPTHANTRIN DERIVATIVES FOR REDOX FLOW BATTERIES” (UNIVERSIDADE DE COIMBRA, priority 2020, published 2023).
Read-outs that look alike come from different tables or passages of the source.

How the values were obtained:
[1] = in 1.0 M H2SO4; cited from earlier work
[2] = Solubility in supporting electrolyte / water; type: physicochemical; conditions: 1.0 M KCl solution, saline or isotonic; in 1.0 M KCl
[3] = Cyclic voltammetry: oxidation/reduction potentials vs. Ag/AgCl; type: physicochemical
Source text: Klimovich, A. A., Popov, A. M., Krivoshapko, O. N., Shtoda, Y. P. & Tsybulsky, A. V. A comparative assessment of the effects of alkaloid tryptanthrin, rosmarinic acid, and doxorubicin on the redox status of tumor and immune cells. Biophysics 62, 588-594 (2017) and in Jahng, Y. Progress in the studies on tryptanthrin, an alkaloid of history. Arch. Pharm. Res. 36, 517-535 (2013)), the electrochemical behavior of the compounds was initially performed by measuring cyclic voltammetry (CV) of TRYP at different pH values. Cyclic voltammograms (CVs) are presented in FIG. 3 and the relevant electrochemical data including the oxidation (Epa) and reduction (Epc) potentials are summarized in table 1.
Cyclic voltammetry (CV) experiments were carried out using an Autolab potentiostat/galvanostat PGSTAT204 running with NOVA 2.1 software and a three-electrode system in a one-compartment electrochemical cell of capacity 10 mL. A glassy carbon electrode (GCE) (d=3 mm) was the working electrode, glassy carbon (GC) (d=1.6 mm) wires the counter electrode and Ag/AgCl (3.0 M KCl) the reference electrode. The GCE was polished with appropriate polishing pads using first aluminium oxide with particle size 0.3 μm and then aluminium oxide particle with size 0.075 μm (polish in a […] motion) before each electrochemical experiment. After polishing, the electrode was rinsed thoroughly with Milli-Q water and the electrode was sonicate in a container with Milli-Q water and ethanol (50:50 v/v) for 5 minutes. Following this mechanical treatment, the GCE was placed in buffer supporting electrolyte and differential pulse voltammograms were recorded until a steady state baseline voltammogram was obtained.
Depending on the pH experiments different electrolytes were used, for pH=0 (1.0 M H2SO4) solution, for pH=7 (1.0 M KCl) solution and pH =13 (1.0 M NaOH) solution. Potassium ferricyanide ([…]) (1.0 mM solution) with 1.0 M of the proper electrolyte in 10 mL of Milli-Q water was used as standard and also degassed with nitrogen for 10 minutes prior to analysis. Lastly, to measure the OCV for BQDS, 1.0 mM was dissolved into 1.0 M KCl solution. An atmosphere of nitrogen was maintained during the voltammetric experiments, and the samples were run at a scan rate of 50 mV s^−1.

[4] = Cyclic voltammetry scan rate study: diffusion coefficient (Randles-Sevcik) and electron transfer rate constant (Nicholson); type: physicochemical
Experimental: To further verify the correlation between the reaction rate of the catholyte/anolyte pair with the performance and stability of the RFBs, the kinetic parameters, diffusion coefficient (D), and electron transfer rate constant (k0), were quantified.
Electrochemical kinetics studies were conducted by CV measurements and Nicholson analysis. […] The Randles-Sevcik equation, described in Elgrishi et al, A Practical Beginner's Guide to Cyclic Voltammetry. Journal of Chemical Education 2018, 95 (2), 197-206, was used to calculate the diffusion coefficient (D in cm^2 s^−1). A linear fit (ip=slope x v½) yields the slope of the cathodic and anodic peaks from which the D was obtained.
(§1) The electron transfer rate constant (k0) of K4[Fe(CN)6]/TRYP-SO3 redox couple was estimated by using the Nicholson method using the D values previously obtained, as described in Nicholson, R. S., Theory and Application of Cyclic Voltammetry for Measurement of Electrode Reaction Kinetics. Analytical Chemistry 1965, 37 (11), 1351-1355.
as §1, with “BQDS/TRYP-SO3” for “K4[Fe(CN)6]/TRYP-SO3”, “couple and TRYP-NH2” for “couple”
First, a solution of 1.0 mM of K4[Fe(CN)6] with 1.0 M of KCl in 10 mL of Milli-Q water was used as catholyte. Second, the catholyte was prepared by dissolving 1.0 mM of BQDS into 10 mL of 1.0 M KCl solution. All the solutions were degassed with nitrogen for 10 min prior to analysis. An atmosphere of nitrogen was maintained during the voltammetric experiments, and the samples were run at a scan rate of 10-100 mV s^−1 range. All the CV experiments were carried out at T=293 K.

[5] = acidic medium, reported studies; cited from earlier work
[6] = neutral pH, 1.0 mM in 1.0 M KCl
[7] = 1.0 mM in 1.0 M KCl, Nicholson method, T = 293 K

Compound | Solubility in sulfuric acid [1] | solubility [2] | Electrode potential in KCl ([3]; in KCl, neutral pH) | Redox potential vs. Ag/AgCl [3, 6] | Diffusion coefficient (D) ([4]; 1.0 mM in 1.0 M KCl, 10-100 mV s^−1, T = 293 K) | Electron transfer rate constant (k0) [4, 7] | Electrode potential [5] | Redox potential vs. Ag/AgCl [3] | Oxidation potential Epa^1 (first peak) ([3]; pH 13) | Oxidation potential Epa^2 (second peak) ([3]; pH 13) | Oxidation potential Epa^3 (third peak) ([3]; pH 13) | Reduction potential Epc^1 (first peak) ([3]; pH 13) | Reduction potential Epc^2 (second peak) ([3]; pH 13) | Reduction potential Epc^3 (third peak) ([3]; pH 13) | Diffusion coefficient (D) [4] | Electron transfer rate constant (k0) [4]
O.O=S(=O)([O-])c1cc(O)c(O)c(S(=O)(=O)[O-])c1.[Na+].[Na+] [BQDS, 4,5-dihydroxy-1,3-benzenedisulfonic acid disodium salt monohydrate, reference compound] | 0.65 M | 1280 mM | 0.94 V | 0.48 V | 5.38e-07 cm/s | 0.000271 cm/s | 0.76 V | – | – | – | – | – | – | – | – | –
Nc1ccc2nc3n(c(=O)c2c1)-c1ccccc1C3=O [TRYP-NH2, 2-aminoindolo[2,1-b]quinazoline-6,12-dione] | – | – | – | −0.45 V | – | 0.264 cm/s | – | – | – | – | – | – | – | – | – | –
O=C1c2cc(S(=O)(=O)O)ccc2-n2c1nc1ccccc1c2=O [TRYP-SO3H, 6,12-dioxo-6,12-dihydroindolo[2,1-b]cquinazoline-8-sulfonic acid] | – | – | – | – | – | – | – | −0.46 V | Epa^1 = 0.225 V | Epa^2 = 0.738 V | Epa^3 = 1.178 V | Epc^1 = −0.325 V | Epc^2 = −0.802 V | Epc^3 = −0.930 V | 6.98e-08 cm/s | 0.000362 cm/s
